Columns and labels:
LecB (PA-IIL) = LecB (PA-IIL) (Pseudomonas aeruginosa, UniProt Q9HYN5); format: binding; conditions: read-out: LecB / KD
BambL = target: T1, BambL (Burkholderia ambifaria, UniProt Q0B4G1); assay: X-ray crystal structure of complex, […] Å; format: binding; conditions: co-crystallised with 5 mM sugar; intra- and intermonomeric sites; reservoir pH 5.0
T1 construct: gene Bamb_5415
T1 sequence (Q0B4G1 1-87 limits assumed): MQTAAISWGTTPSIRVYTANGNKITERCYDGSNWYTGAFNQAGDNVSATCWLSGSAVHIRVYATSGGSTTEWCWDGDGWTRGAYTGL

Sequence of LecB (PA-IIL) (Q9HYN5 2-115 limits assumed): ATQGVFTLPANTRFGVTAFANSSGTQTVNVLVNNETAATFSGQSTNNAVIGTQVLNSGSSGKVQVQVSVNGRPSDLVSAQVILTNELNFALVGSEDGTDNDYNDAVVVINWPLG

Compound	Kd (LecB (PA-IIL)) [nM]	X-ray crystal structure of complex, 1.6 Å (BambL)
CC(=O)N[C@H]1[C@@H](O[C@H]2[C@@H](O)[C@@H](CO)OC(O)[C@@H]2O[C@@H]2O[C@@H](C)[C@@H](O)[C@@H](O)[C@@H]2O)O[C@H](CO)[C@H](O)[C@@H]1O (some centres unmarked) [A tri]	10300	–
CC(=O)N[C@H]1C(O)O[C@H](CO)[C@@H](O)[C@@H]1O[C@@H]1O[C@H](CO)[C@H](O)[C@H](O)[C@H]1O[C@@H]1O[C@@H](C)[C@@H](O)[C@@H](O)[C@@H]1O (some centres unmarked) [H type 1]	1390	–
CC(=O)N[C@H]1C(O)O[C@H](CO)[C@@H](O[C@@H]2O[C@H](CO)[C@H](O)[C@H](O)[C@H]2O[C@@H]2O[C@@H](C)[C@@H](O)[C@@H](O)[C@@H]2O)[C@@H]1O (some centres unmarked) [H type 2]	480	–
CC(=O)N[C@H]1[C@H](O[C@H]2[C@@H](O)[C@@H](CO)OC(O)[C@@H]2O)O[C@H](CO)[C@@H](O[C@@H]2O[C@H](CO)[C@H](O)[C@H](O)[C@H]2O)[C@@H]1O[C@@H]1O[C@@H](C)[C@@H](O)[C@@H](O)[C@@H]1O (some centres unmarked) [Le^x tetrasaccharide]	–	BambL was cocrystallised with the Le^x tetrasaccharide
CC(=O)N[C@H]1[C@H]([C@H](O)[C@H](O)CO)O[C@@](O[C@H]2[C@@H](O)[C@@H](CO)O[C@@H](O[C@H]3[C@H](O[C@@H]4O[C@@H](C)[C@@H](O)[C@@H](O)[C@@H]4O)[C@@H](CO)OC(O)[C@@H]3NC(C)=O)[C@@H]2O)(C(=O)O)C[C@@H]1O (some centres unmarked) [sLe^a]	290	–

— paper PMC3747263 (PLoS ONE, 2013)
